Data: patent US7226892B2, “Herbicidal composition and use” (Durga Technologies ApS, priority 2003, dated 2007)

Tests used:
[1] = respiratory tract/lungs, eyes, skin; cited from earlier work
[2] = test system: mixed vegetation of grasses and weeds; assay: Spraying of glycine solution onto mixed vegetation; assay type: in vivo; settings: glycine alone, summary statement
Source text: A common squirt bottle delivering a fine spray was used for spraying the weeds.
A solution of 90 g of glycine+15 g of the surfactant “Witconol® SN 90” in 1 L of water was sprayed onto a mixed vegetation of grasses and weeds until the spray liquid dripped from the leaves, corresponding to 0.1 L/m^2.

SMILES | risk identification / classification as irritant [1] | herbicidal activity of glycine per se [2]
O=C(O)CC(O)(CC(=O)O)C(=O)O [citric acid, Citric Acid Monohydrate, reference compound] | Irritates respiratory tract/lungs, irritates eyes, skin irritating | –
NCC(=O)O [glycine, 2-aminoethanoic acid] | not classified as an irritant | no noticeable herbicidal activity
